Data taken from patent JP2009512709A, “速効型インスリンの経鼻投与” (エムディーアールエヌエー，インコーポレイテッド, priority 2005, dated 2007).

How the values were obtained:
[1] = Rabbit pharmacokinetics (serum insulin) after IN, SC, IV or oral insulin; format: in vivo, ニュージーランド白色ラビット; details: PK study 2
EpiAirway = assay: Insulin tissue permeation across EpiAirway, ELISA; format: in vitro ADME; details: in vitro study 3; Tween-containing formulations
黄色ブドウ球菌、クロカビ、緑膿菌 = assay: Antimicrobial effectiveness test (AET), USP and EP requirements; details: for AET result against EP requirements / AET result against USP requirements: insulin nasal spray formulations (placebo or active); for Preservative / antimicrobial effectiveness: in insulin nasal spray formulations, neutral pH
[2] = Compatibility of preservative with insulin (precipitation); format: physicochemical; details: presence in formulation caused insulin precipitation
グルコース = assay: Human PD clinical study, glucose by glucometer; format: in vivo, ヒト; details: intranasal administration

CCCCCCCCCC(=O)OC[C@H](COP(=O)([O-])OCC[N+](C)(C)C)OC(=O)CCCCCCCCC [DDPC, L−α−ホスファチジルコリンジデカノイル]
Effect of removing DDPC on BA(%), Cmax and AUClast [1]: 減少した | Effect of removing the excipient from the formulation on insulin permeation (EpiAirway): 影響を有しなかった

O=C([O-])CN(CCN(CC(=O)[O-])CC(=O)O)CC(=O)O.[Na+].[Na+] [EDTA, エデト酸二ナトリウム]
AET result against EP requirements (黄色ブドウ球菌、クロカビ、緑膿菌): 有効であるとは思われなかった | AET result against USP requirements (黄色ブドウ球菌、クロカビ、緑膿菌): 有効であるとは思われなかった

Cc1cccc(O)c1 [m−クレゾール]
Preservative / antimicrobial effectiveness (黄色ブドウ球菌、クロカビ、緑膿菌): 有効な防腐剤ではなかった

CC(C)CC(N)B(O)O (stereo not drawn) [ベンジルアルコール]
Preservative / antimicrobial effectiveness (黄色ブドウ球菌、クロカビ、緑膿菌): 有効な防腐剤ではなかった and 無効

CC(C)CC(N)B(O)O (stereo not drawn) [塩化ベンズアルコニウム]
Compatibility with insulin [2]: 不適合性 | Preservative / antimicrobial effectiveness (黄色ブドウ球菌、クロカビ、緑膿菌): 最良の抗菌性能 | AET result against EP requirements (黄色ブドウ球菌、クロカビ、緑膿菌): 優れた防腐剤 | AET result against USP requirements (黄色ブドウ球菌、クロカビ、緑膿菌): 優れた防腐剤

CC(C)CC(N)B(O)O (stereo not drawn) [安息香酸ナトリウム]
Preservative / antimicrobial effectiveness (黄色ブドウ球菌、クロカビ、緑膿菌): 有効な防腐剤ではなかった

インスリン: recombinant native-sequence human insulin
Reduction of glucose (%) in patients (グルコース): 有効
